Assay results published in ChEMBL document CHEMBL3886670, “ROR modulators and their uses” (2016).

Biological target: T1, Nuclear receptor ROR-gamma (Homo sapiens, UniProt P51449)
T1 sequence (P51449 whole entry): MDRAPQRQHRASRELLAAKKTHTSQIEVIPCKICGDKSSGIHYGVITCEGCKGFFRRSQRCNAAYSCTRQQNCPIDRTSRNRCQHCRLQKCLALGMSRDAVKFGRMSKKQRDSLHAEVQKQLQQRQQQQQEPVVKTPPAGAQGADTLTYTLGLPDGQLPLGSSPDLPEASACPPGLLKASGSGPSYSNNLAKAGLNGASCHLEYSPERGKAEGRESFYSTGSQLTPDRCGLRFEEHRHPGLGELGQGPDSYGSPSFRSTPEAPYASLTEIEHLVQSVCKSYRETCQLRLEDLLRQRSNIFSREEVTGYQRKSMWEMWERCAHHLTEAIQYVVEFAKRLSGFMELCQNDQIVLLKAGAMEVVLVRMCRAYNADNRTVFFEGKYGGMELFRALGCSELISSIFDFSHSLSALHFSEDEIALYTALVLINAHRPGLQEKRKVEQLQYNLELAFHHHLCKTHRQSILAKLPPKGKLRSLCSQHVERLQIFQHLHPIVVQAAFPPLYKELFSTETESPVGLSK
Assay: Binding Assay: Compound binding to the human RORγ LBD was assessed using the Human RORγ Assay System (INDIGO Biosciences Inc.) as per manufacturer's instructions. Binding to the RORγ LBD was assessed using gradient concentrations of the indicated compounds in a final concentration of 0.5% DMSO.

`CS(=O)(=O)Nc1ccc2c(c1)CCC(=O)N2Cc1ccc(C(O)(C(F)(F)F)C(F)(F)F)cc1` showed an IC50 of less than 10 µM.
